According to ChEMBL document CHEMBL1144064, “Biological evaluation of proanthocyanidin dimers and related polyphenols” (J Nat Prod, 1999):
≈ marks a conversion by molar mass, not a printed value. Calls of active or inactive are those of the source. The rule behind the calls is not given here.

Experiments:
[1] = Modulation of classical complement pathway system assessed as hemoglobin release by spectrophotometry
Staphylococcus aureus = assay: Antimicrobial activity against Staphylococcus aureus; assay type: functional
Candida albicans = assay: Antimicrobial activity against Candida albicans; assay type: functional
[2] = tested on: Mycolicibacterium fortuitum; assay: Antimicrobial activity against Mycobacterium fortuitum; assay type: functional
[3] = Cytotoxicity against human MT4 cells by MTT assay; assay type: cell-based
[4] = tested on: Human immunodeficiency virus; assay: Antiviral activity against HIV infected in human MT4 cells assessed as inhibition of virus-induced cytopathic effect by MTT assay; assay type: functional, organism-based; conditions: Human immunodeficiency virus 1, MT4
Salmonella paratyphi = assay: Antimicrobial activity against Salmonella paratyphi; assay type: functional, Salmonella enterica subsp. enterica serovar Paratyphi A; conditions: Salmonella enterica
Enterobacter cloacae = assay: Antimicrobial activity against Enterobacter cloacae; assay type: functional
[5] = Selectivity index, ratio of CC50 for human MT4 cells to IC50 for HIV infected in human MT4 cells; assay type: functional
Escherichia coli = assay: Antimicrobial activity against Escherichia coli; assay type: functional
[6] = Antioxidant activity assessed as superoxide radical anion scavenging activity; assay type: functional
[7] = Modulation of alternative complement pathway system assessed as hemoglobin release by spectrophotometry
Pseudomonas aeruginosa = assay: Antimicrobial activity against Pseudomonas aeruginosa; assay type: functional
Simplexvirus = assay: Antiviral activity against HSV up to 200 ug/mL by extracellular virucidal assay; assay type: functional, organism-based
Streptococcus pyogenes = assay: Antimicrobial activity against Streptococcus pyogenes; assay type: functional

| Structure (SMILES) | IC50 [1] | MBC (Staphylococcus aureus) | MIC (Staphylococcus aureus) | MBC (Candida albicans) | MIC (Candida albicans) | MBC [2] | MIC [2] | CC50 [3] | IC50 [4] | MBC (Salmonella paratyphi) | MIC (Salmonella paratyphi) | MBC (Enterobacter cloacae) | MIC (Enterobacter cloacae) | Ratio CC50/IC50 [5] | MBC (Escherichia coli) | MIC (Escherichia coli) | IC50 [6] | Activity [7] | MBC (Pseudomonas aeruginosa) | MIC (Pseudomonas aeruginosa) | further results |
| --- | --- | --- | --- | --- | --- | --- | --- | --- | --- | --- | --- | --- | --- | --- | --- | --- | --- | --- | --- | --- | --- |
| Oc1cc(O)c2c(c1)O[C@H](c1ccc(O)c(O)c1)[C@@H](O)C2 [CIANIDANOL] | 647 µM | > 100 µg/mL | > 100 µg/mL | > 100 µg/mL | > 100 µg/mL | > 100 µg/mL | > 100 µg/mL | 86.8 µg/mL (≈ 299 µM) | > 86.8 µg/mL | > 100 µg/mL | > 100 µg/mL | > 100 µg/mL | > 100 µg/mL | <1 | > 100 µg/mL | > 100 µg/mL | 13.1 µM | inactive | > 100 µg/mL | > 100 µg/mL |  |
| Oc1cc(O)c2c(c1)O[C@H](c1ccc(O)c(O)c1)[C@@H](O)[C@@H]2c1c(O)cc2c(c1O)C[C@@H](O)[C@@H](c1ccc(O)c(O)c1)O2 | 19.7 µM | > 100 µg/mL | > 100 µg/mL | > 100 µg/mL | > 100 µg/mL | > 100 µg/mL | > 100 µg/mL | 127 µg/mL (≈ 219 µM) | 19.6 µg/mL (≈ 33.9 µM) | > 100 µg/mL | > 100 µg/mL | > 100 µg/mL | > 100 µg/mL | 8 | > 100 µg/mL | > 100 µg/mL | 32.9 µM |  | > 100 µg/mL | > 100 µg/mL | Activity (Simplexvirus): inactive; IC50 [7]: 83.7 µM |
| O=C(/C=C/c1ccc(O)c(O)c1)O[C@H](Cc1ccc(O)c(O)c1)C(=O)O [ROSMARINIC ACID] | 21.9 µM |  |  |  |  |  |  |  |  |  |  |  |  |  |  |  |  |  |  |  | IC50 [7]: 408 µM |
| Oc1cc(O)c2c(c1)O[C@H](c1ccc(O)c(O)c1)[C@@H](O)[C@@H]2c1c(O)cc(O)c2c1O[C@H](c1ccc(O)c(O)c1)[C@H](O)C2 | 45.5 µM | > 100 µg/mL | > 100 µg/mL | > 100 µg/mL | > 100 µg/mL | > 100 µg/mL | > 100 µg/mL | 0.3 µg/mL (≈ 0.519 µM) | > 0.3 µg/mL | > 100 µg/mL | > 100 µg/mL | > 100 µg/mL | > 100 µg/mL | <1 | > 100 µg/mL | > 100 µg/mL | 30 µM | inactive | > 100 µg/mL | > 100 µg/mL | MBC (Streptococcus pyogenes): 50 µg/mL (≈ 86.4 µM); MIC (Streptococcus pyogenes): 25 µg/mL (≈ 43.2 µM); Activity (Simplexvirus): inactive |
| Oc1cc(O)c2c(c1)O[C@H](c1ccc(O)c(O)c1)[C@@H](O)[C@@H]2c1c(O)cc(O)c2c1O[C@H](c1ccc(O)c(O)c1)[C@@H](O)C2 | 37.7 µM | > 100 µg/mL | > 100 µg/mL | > 100 µg/mL | > 100 µg/mL | > 100 µg/mL | > 100 µg/mL | 118 µg/mL (≈ 204 µM) | 27 µg/mL (≈ 46.7 µM) | > 100 µg/mL | > 100 µg/mL | > 100 µg/mL | > 100 µg/mL | 5 | > 100 µg/mL | > 100 µg/mL | 41.3 µM | inactive | > 100 µg/mL | > 100 µg/mL | Activity (Simplexvirus): inactive |
| Oc1cc(O)c2c(c1)O[C@H](c1ccc(O)c(O)c1)[C@H](O)[C@H]2c1c(O)cc2c(c1O)C[C@@H](O)[C@@H](c1ccc(O)c(O)c1)O2 | 51.7 µM | > 100 µg/mL | > 100 µg/mL | > 100 µg/mL | > 100 µg/mL | > 100 µg/mL | > 100 µg/mL | 53.5 µg/mL (≈ 92.5 µM) | 8.3 µg/mL (≈ 14.3 µM) | > 100 µg/mL | > 100 µg/mL | > 100 µg/mL | > 100 µg/mL | 9 | > 100 µg/mL | > 100 µg/mL | 11.4 µM | inactive | > 100 µg/mL | > 100 µg/mL | MBC (Streptococcus pyogenes): 100 µg/mL (≈ 173 µM); MIC (Streptococcus pyogenes): 100 µg/mL (≈ 173 µM); Activity (Simplexvirus): inactive |
| Oc1cc(O)c2c(c1)O[C@H](c1ccc(O)c(O)c1)[C@H](O)[C@H]2c1c(O)cc(O)c2c1O[C@H](c1ccc(O)c(O)c1)[C@H](O)[C@H]2c1c(O)cc(O)c2c1O[C@H](c1ccc(O)c(O)c1)[C@H](O)C2 [PROCYANIDIN C1] | 6 µM | > 100 µg/mL | > 100 µg/mL | > 100 µg/mL | > 100 µg/mL | > 100 µg/mL | > 100 µg/mL | 16.5 µg/mL (≈ 19 µM) | 4.3 µg/mL (≈ 4.96 µM) | > 100 µg/mL | > 100 µg/mL | > 100 µg/mL | > 100 µg/mL | 5 | > 100 µg/mL | > 100 µg/mL | 10.7 µM |  | > 100 µg/mL | > 100 µg/mL | MBC (Streptococcus pyogenes): 100 µg/mL (≈ 115 µM); MIC (Streptococcus pyogenes): 100 µg/mL (≈ 115 µM); Activity (Simplexvirus): inactive; IC50 [7]: 85.5 µM |
| Cc1cn([C@H]2C[C@H](N=[N+]=[N-])[C@@H](CO)O2)c(=O)[nH]c1=O [ZIDOVUDINE] |  |  |  |  |  |  |  | 2.58 µg/mL (≈ 9.66 µM) | 0.0002 µg/mL (≈ 0.000748 µM) |  |  |  |  |  |  |  |  |  |  |  |  |
| Oc1cc(O)c2c(c1)O[C@H](c1ccc(O)c(O)c1)[C@H](O)[C@H]2c1c(O)cc(O)c2c1O[C@H](c1ccc(O)c(O)c1)[C@@H](O)C2 [PROCYANIDIN B1] | 31.3 µM | > 100 µg/mL | > 100 µg/mL | > 100 µg/mL | > 100 µg/mL | > 100 µg/mL | > 100 µg/mL |  |  | > 100 µg/mL | > 100 µg/mL | > 100 µg/mL | > 100 µg/mL |  | > 100 µg/mL | > 100 µg/mL |  |  | > 100 µg/mL | > 100 µg/mL | IC50 [7]: 72 µM |
| Oc1cc(O)c2c(c1)O[C@H](c1ccc(O)c(O)c1)[C@H](O)C2 [(-)-EPICATECHIN] | 656 µM | > 100 µg/mL | > 100 µg/mL | > 100 µg/mL | > 100 µg/mL | > 100 µg/mL | > 100 µg/mL | 136 µg/mL (≈ 469 µM) | 34.1 µg/mL (≈ 117 µM) | > 100 µg/mL | > 100 µg/mL | > 100 µg/mL | > 100 µg/mL | 4 | > 100 µg/mL | > 100 µg/mL | 18.3 µM | inactive | > 100 µg/mL | > 100 µg/mL |  |
| Oc1cc(O)c2c(c1)O[C@H](c1cc(O)c(Oc3cc(O)c4c(c3)O[C@H](c3cc(O)c(O)c(O)c3)[C@H](O)C4)c(O)c1)[C@@H](O)C2 | 14.6 µM | > 100 µg/mL | > 100 µg/mL | > 100 µg/mL | > 100 µg/mL | > 100 µg/mL | > 100 µg/mL |  |  | > 100 µg/mL | > 100 µg/mL | > 100 µg/mL | > 100 µg/mL |  | > 100 µg/mL | > 100 µg/mL | 2 µM |  | > 100 µg/mL | > 100 µg/mL | IC50 [7]: 86 µM |
| O=C1c2c(O)cc(O)cc2O[C@H](c2ccc(O)c(O)c2)[C@H]1O [(+)-TAXIFOLIN] | 850 µM | > 100 µg/mL | > 100 µg/mL | > 100 µg/mL | > 100 µg/mL | > 100 µg/mL | > 100 µg/mL | 25.4 µg/mL (≈ 83.5 µM) | > 25.4 µg/mL | > 100 µg/mL | > 100 µg/mL | > 100 µg/mL | > 100 µg/mL | <1 | > 100 µg/mL | > 100 µg/mL | 24.2 µM | inactive | > 100 µg/mL | > 100 µg/mL | Activity (Simplexvirus): inactive |
